Literature values, collected in patent US20140242195A1, “AUTOMOTIVE SURFACE CONDITIONING SYSTEM” (American Covers, Inc., priority 2013, published 2014).

Settings: component of the composition

Row | Vapor Pressure (mmHg) | SMILES
1 | 0.07 mmHg | CCOCCOCCO [CARBITOL, diethylene glycol monoethyl ether]
2 | 0.003 mmHg | OCC(O)CO [Glycerin]
